Results reported in patent US11447471B2, “α,β-unsaturated amide compound” (KYOWA KIRIN CO., LTD., priority 2017, dated 2022).

System: OVTOKO cells
Experiment: Cell growth inhibitory effect on human ovarian cancer cell line (cell counting kit 8, 6 days)
Format: cell-based
Conditions: 144 h, 6 days incubation
Source text: (§1) NCI-H226 cells, a human mesothelioma cell line (ATCC, CRL-5826), NCI-H322 cells, a human lung cancer cell line (the European Collection of Authenticated Cell Cultures, 95111734), OUTOKO cells, a human ovarian cancer cell line (JCRB cell bank, KRB1048) and […] were each subcultured by keeping the cell density under 80% in a RPMI1640 culture medium with 10% fetal bovine serum (FBS). NCI-H226 cells, NCI-H322 cells and SSP-25 cells were each suspended in the RPMI1640 culture medium mentioned above, and plated to a 96-well flat-bottom plate at 500 cells/well in each well, and incubated at 37° C. in an incubator with 5% CO2 for one day. After the incubation, the evaluation of cell growth inhibitory activity was started. OVTOKO cells were suspended in the RPMI1640 culture medium mentioned above, and plated to a 96-well flat-bottom plate at 250 cells/well in each well, and incubated it at 37° C. in an incubator with 5% CO2 for one day. After the incubation, the evaluation of the cell growth inhibitory activity was started. The next day, a test compound was serially diluted to 5 times of its final concentration in the RPM11640 culture medium mentioned above, and the diluted solution was added to each well. In this case, the final concentration of DMSO in each well was adjusted to 0.1%. After the test compound was added, cells were incubated at 37° C. in an incubator with 5% CO2 for 6 days. At the addition of the test compound and 6 days after the addition, the cell counting measurement was performed using a cell counting kit 8 (made by DOJINDO) according to a protocol equivalent to DOJINDO's recommendation. A reagent contained in the kit was added to each plate and color reaction was performed for 2 or 3 hours at 37° C. in an incubator with 5% CO2. After the reaction, an absorbance at wavelength of 450 nm was measured using a microplate reader. A growth inhibition rate was calculated according to the following formula, from which the concentration of a test compound at which cell growth was inhibited by 50% (GI50 value) was determined.

| SMILES | GI50 [nM] |
| --- | --- |
| C=CC(=O)Nc1cncc(Oc2cncc(C(F)(F)F)c2)c1 [Compound 107, N-(5-[{5-(Trifluoromethyl)pyridin-3-yl}oxy]pyridin-3-yl)acrylamide] | ≤ 3000 |
| C=CC(=O)Nc1cncc(Oc2ccnc(C(F)(F)F)c2)c1 [Compound 108, N-(5-[{2-(Trifluoromethy)pyridin-4-yl}oxy]pyridin-3-yl)acrylamide] | ≤ 3000 |
| C=CC(=O)Nc1cncc(Oc2ccc(C(F)(F)F)cn2)c1 [Compound 109, N-(5-[{5-(Trifluoromethyl)pyridin-2-yl}oxy]pyridin-3-yl)acrylamide] | ≤ 3000 |
| C=CC(=O)Nc1ccc(Oc2ccccc2)c2ncccc12 [Compound 111, N-(8-Phenoxyquinolin-5-yl)acrylamide] | ≤ 3000 |
| C=CC(=O)Nc1ccc(Oc2ccccc2)c2nc(C)ccc12 [Compound 112, N-(2-Methyl-8-phenoxyquinolin-5-yl)acrylamide] | ≤ 3000 |
| C=CC(=O)Nc1ccc(Oc2cccc(Cl)c2)c2ncccc12 [Compound 114, N-{8-(3-Chlorophenoxy)quinolin-5-yl}acrylamide] | ≤ 3000 |
| C=CC(=O)Nc1ccc(Oc2ccc(Cl)cc2)c2nc(C)ccc12 [Compound 117, N-{8-(4-Chlorophenoxy)-2-methylquinolin-5-yl}acrylamide] | ≤ 3000 |
| C=CC(=O)Nc1ccc(OCC2CCC(F)(F)CC2)c2ncccc12 [Compound 126, N-[8-{(4,4-Difluorocyclohexyl)methoxy}quinolin-5-yl]acrylamide] | ≤ 3000 |
| [H]/C=C/C(=O)NCc1ccc(Oc2ccc(Cl)cc2)c2ncccc12 [Compound 134, N-[{8-(4-Chlorophenoxy)quinolin-5-yl}methyl]acrylamide] | ≤ 3000 |
| [H]/C=C/C(=O)NCc1ccc(Oc2cccc(C(F)(F)F)c2)c2ncccc12 [Compound 137, N-([8-{3-(Trifluoromethyl)phenoxy}quinolin-5-yl]methyl)acrylamide] | ≤ 3000 |
| [H]/C=C/C(=O)NCc1ccc(Oc2ccc(C(F)(F)F)cc2)c2ncccc12 [Compound 138, N-([8-{4-(Trifluoromethyl)phenoxy}quinolin-5-yl]methyl)acrylamide] | ≤ 3000 |
| [H]/C=C/C(=O)NCc1ccc(Oc2ccc(C(F)(F)F)nc2)c2ncccc12 [Compound 143, N-{(8-[{6-(Trifluoromethyl)pyridin-3-yl}oxy]quinolin-5-yl)methyl}acrylamide] | ≤ 3000 |
| [H]/C=C/C(=O)NCc1cc(Oc2ccc(C(F)(F)F)nc2)nc2ccccc12 [Compound 149, N-{(2-[{6-(Trifluoromethyl)pyridin-3-yl}oxy]quinolin-4-yl)methyl}acrylamide] | ≤ 3000 |
| [H]/C=C/C(=O)NCc1cc(Oc2ccnc(Cl)c2)nc2ccccc12 [Compound 150, N-([2-{(2-Chloropyridin-4-yl)oxy}quinolin-4-yl]methyl)acrylamide] | ≤ 3000 |
| [H]/C=C/C(=O)NCc1cc(Oc2ccnc(C(F)(F)F)c2)nc2ccccc12 [Compound 151, N-{(2-[{2-(Trifluoromethyl)pyridin-4-yl}oxy]quinolin-4-yl)methyl}acrylamide] | ≤ 3000 |
| C=CC(=O)NC1COc2c(cccc2Oc2cnc(C(F)(F)F)nc2)C1 (stereo not shown) [Compound 155, N-(8-[{2-(Trifluoromethyl)pyrimidin-5-yl}oxy]chroman-3-yl)acrylamide] | ≤ 3000 |
| C=CC(=O)NC1COc2c(cccc2Oc2cnc(C(F)(F)F)cn2)C1 (stereo not shown) [Compound 157, N-(8-[{5-(Trifluoromethyl)pyrazin-2-yl}oxy]chroman-3-yl)acrylamide] | ≤ 3000 |
| C=CC(=O)NC1COc2c(cc(C(F)(F)F)cc2Oc2ccc(C(F)(F)F)nc2)C1 (stereo not shown) [Compound 162, N-{6-(Trifluoromethyl)-8-[{6-(trifluoromethyl)pyridin-3-yl}oxy]chroman-3-yl}acrylamide] | ≤ 3000 |
| C=CC(=O)NC1CCOc2c1ccc(Oc1ccc(F)c(F)c1)c2OC (stereo not shown) [Compound 164, N-{7-(3,4-Difluorophenoxy)-8-methoxychroman-4-yl}acrylamide] | ≤ 3000 |
| C=CC(=O)NC1CCOc2c1ccc(Oc1ccc(C(F)(F)F)nc1)c2Cl (stereo not shown) [Compound 168, N-(8-Chloro-7-[{6-(trifluoromethyl)pyridin-3-yl}oxy]chroman-4-yl)acrylamide] | ≤ 3000 |

| SMILES | GI50 [nM] |
| --- | --- |
| C=CC(=O)NC1CCOc2c1ccc(Oc1ccc(C(F)(F)F)nc1)c2Br (stereo not shown) [Compound 169, N-(8-Bromo-7-[{6-(trifluoromethyl)pyridin-3-yl}oxy]chroman-4-yl)acrylamide] | ≤ 3000 |
| C=CC(=O)NCc1ccc(Oc2ccc(Cl)cc2)c2c1CCCO2 [Compound 176, N-[{8-(4-Chlorophenoxy)chroman-5-yl}methyl]acrylamide] | ≤ 3000 |
| C=CC(=O)NCc1ccc(Oc2ccc(C(F)(F)F)cc2)c2ncc(C)cc12 [Compound 199, N-([3-Methyl-8-{4-(trifluoromethyl)phenoxy}quinolin-5-yl]methyl)acrylamide] | ≤ 3000 |
| C=CC(=O)NCc1ccc(Oc2ccc(C(F)(F)F)nc2)c2ncc(C)cc12 [Compound 200, N-{(3-Methyl-8-[{6-(trifluoromethyl)pyridin-3-yl}oxy]quinolin-5-yl)methyl}acrylamide] | ≤ 3000 |
| C=CC(=O)NCc1ccc(Oc2ccc(C(F)(F)F)cc2)c2nccc(C)c12 [Compound 201, N-([4-Methyl-8-{4-(trifluoromethyl)phenoxy}quinolin-5-yl]methyl)acrylamide] | ≤ 3000 |
| C=CC(=O)NCc1ccc(Sc2ccc(C(F)(F)F)cc2)c2ncccc12 [Compound 202, N-{(8-[{4-(Trifluoromethyl)phenyl}thio]quinolin-5-yl)methyl}acrylamide] | ≤ 3000 |
| C=CC(=O)NCc1ccc(Nc2ccc(C(F)(F)F)cc2)c2ncccc12 [Compound 203, N-{(8-[{4-(Trifluoromethyl)phenyl}amino]quinolin-5-yl)methyl}acrylamide] | ≤ 3000 |
| C=CC(=O)NCc1ccc(C(O)c2ccc(C(F)(F)F)cc2)c2ncccc12 (stereo not shown) [Compound 206, N-{(8-[Hydroxy{4-(trifluoromethyl)phenyl}methyl]quinolin-5-yl)methyl}acrylamide] | ≤ 3000 |
| C=CC(=O)NCc1ccc(C(=O)c2ccc(C(F)(F)F)cc2)c2ncccc12 [Compound 208, N-([8-{4-(Trifluoromethyl)benzoyl}quinolin-5-yl]methyl)acrylamide] | ≤ 3000 |
| C=CC(=O)NCc1ccc(Cc2ccc(C(F)(F)F)cc2)c2ncccc12 [Compound 211, N-([8-{4-(Trifluoromethyl)benzyl}quinolin-5-yl]methyl)acrylamide] | ≤ 3000 |
| C=CC(=O)NCc1ccc(Oc2ccc(C(F)(F)F)cc2)c2nc(C)ccc12 [Compound 212, N-([2-Methyl-8-{4-(trifluoromethyl)phenoxy}quinolin-5-yl]methyl)acrylamide] | ≤ 3000 |
| C=CC(=O)NCc1ccc(Oc2ccc(C(F)(F)F)cc2)c2cccnc12 [Compound 216, N-([5-{4-(Trifluoromethyl)phenoxy}quinolin-8-yl]methyl)acrylamide] | ≤ 3000 |
| C=CC(=O)NCc1ccc(Oc2ccc(C(F)(F)F)nc2)c2cccnc12 [Compound 219, N-{(5-[{6-(Trifluoromethyl)pyridin-3-yl}oxy]quinolin-8-yl)methyl}acrylamide] | ≤ 3000 |
| C=CC(=O)NCc1cnc(Oc2ccc(C(F)(F)F)cc2)c2ccccc12 [Compound 222, N-([1-{4-(Trifluoromethyl)phenoxy}isoquinolin-4-yl]methyl)acrylamide] | ≤ 3000 |
| C=CC(=O)NCc1ccc(Oc2ccc(C(F)(F)F)cc2)c2cnccc12 [Compound 223, N-([8-{4-(Trifluoromethy)phenoxy}isoquinolin-5-yl]methyl)acrylamide] | ≤ 3000 |
| C=CC(=O)NCc1ncc(Oc2ccc(C(F)(F)F)cc2)c2ccccc12 [Compound 224, N-([4-{4-(Trifluorophenyl)phenoxy}isoquinolin-1-yl]methyl)acrylamide] | ≤ 3000 |
| C=CC(=O)Nc1cnc(Oc2ccc(Cl)cc2)c2ncccc12 [Compound 226, N-{8-(4-chlorophenoxy)-1,7-naphthyridin-5-yl}acrylamide] | ≤ 3000 |
| C=CC(=O)NCc1cnc(Oc2ccc(Cl)cc2)c2ncccc12 [Compound 227, N-[{8-(4-Chlorophenoxy)-1,7-naphthyridin-5-yl}methyl]acrylamide] | ≤ 3000 |
| C=CC(=O)NC1COc2c(cccc2Oc2ccc(C(F)(F)F)nc2)C1 (stereo not shown) [Compound 229, N-(8-[{6-(Trifluoromethyl)pyridin-3-yl}oxy]chroman-3-yl)acrylamide] | ≤ 3000 |

System: NCI-H226 cells
Experiment: Cell growth inhibitory effect on human mesothelioma cell line (cell counting kit 8, 6 days)
Format: cell-based
Conditions: NCI-H226, 144 h
Source text: as §1

| SMILES | GI50 [nM] |
| --- | --- |
| C=CC(=O)N[C@@H]1CC[C@H](Oc2ccccc2)c2ncccc21 (relative stereo) [Compound 67, cis-N-(8-Phenoxy-5,6,7,8-tetrahydroquinolin-5-yl)acrylamide] | 100 to 1000 |
